Assay [1] has as its system SMMC-7721. The experiment in a line: Induction of apoptosis in human SMMC7721 cells assessed as viable cells at 9 uM after 48 hrs using by V-FITC/PI double-staining assay (reference value: 92.9%). In kind it is functional. The note with it: SMMC-7721, 48 h, read-out: Activity.
In a further assay the test system is MCF7. The experiment in a line: Cytotoxicity against human MCF7 cells after 48 hrs by MTT assay. Format: functional, cell-based. The note with it: MCF7, 48 h. For orientation: Tetrazolium assays rely on reduction of a dye to a coloured formazan, in cell work by metabolically active cells.
For assay [2], the system named is SMMC-7721. The experiment in a line: Induction of apoptosis in human SMMC7721 cells assessed as late apoptotic cells at 3 uM after 48 hrs using by V-FITC/PI double-staining assay (reference value: 0.481%). Format: functional.
A further assay deals with HL-60. The experiment in a line: Cytotoxicity against human HL60 cells after 48 hrs by MTT assay. The note with it: HL-60, 48 h. Format: functional, cell-based.
In assay [3] the test system is SMMC-7721. The assay is described as follows: Induction of apoptosis in human SMMC7721 cells assessed as early apoptotic cells at 3 uM after 48 hrs using by V-FITC/PI double-staining assay (reference value: 1.76%). In kind it is functional.
For a further assay, the system named is SW480. The assay is described as follows: Cytotoxicity against human SW480 cells after 48 hrs by MTT assay. Format: functional, cell-based. The conditions noted are these: SW480, 48 h.
Assay [4] relates to SMMC-7721. The assay is described as follows: Cell cycle arrest in human SMMC7721 cells assessed as accumulation at G1 phase after 24 hrs using PI staining by flow cytometry. In kind it is functional, cell-based.
The subject of assay [5] is SMMC-7721. The assay is described as follows: Induction of apoptosis in human SMMC7721 cells assessed as late apoptotic cells at 9 uM after 48 hrs using by V-FITC/PI double-staining assay (reference value: 0.481%). In kind it is functional.
For assay [6], the system named is SMMC-7721. The assay is described as follows: Induction of apoptosis in human SMMC7721 cells at 9 uM after 48 hrs using by V-FITC/PI double-staining assay (reference value: 2.73 +/- 0.69%). In kind it is functional.
Assay [7] relates to SMMC-7721. The experiment in a line: Cell cycle arrest in human SMMC7721 cells assessed as accumulation at S phase at 6 uM after 24 hrs using PI staining by flow cytometry (reference value: 24.41%). In kind it is functional. (A flow cytometer gives signals particle by particle.)
Assay [8] concerns SMMC-7721. The experiment in a line: Induction of apoptosis in human SMMC7721 cells assessed as early apoptotic cells at 9 uM after 48 hrs using by V-FITC/PI double-staining assay (reference value: 1.76%). Format: functional.
In a further assay the test system is A549. The experiment in a line: Cytotoxicity against human A549 cells after 48 hrs by MTT assay. Format: functional, cell-based. The note with it: A549, 48 h.
For assay [9], the system named is SMMC-7721. The assay is described as follows: Induction of apoptosis in human SMMC7721 cells assessed as late apoptotic cells at 6 uM after 48 hrs using by V-FITC/PI double-staining assay (reference value: 0.481%). In kind it is functional.
The subject of assay [10] is SMMC-7721. The assay is described as follows: Induction of apoptosis in human SMMC7721 cells assessed as early apoptotic cells at 6 uM after 48 hrs using by V-FITC/PI double-staining assay (reference value: 1.76%). In kind it is functional.
The subject of assay [11] is SMMC-7721. The experiment in a line: Cytotoxicity against human SMMC7721 cells after 48 hrs by MTT assay. Format: functional, cell-based. The note with it: SMMC-7721, 48 h.
In assay [12] the test system is SMMC-7721. The assay is described as follows: Cell cycle arrest in human SMMC7721 cells assessed as accumulation at G1 phase at 6 uM after 24 hrs using PI staining by flow cytometry (reference value: 60.29%). Format: functional.
Assay [13] has as its system SMMC-7721. The assay is described as follows: Induction of apoptosis in human SMMC7721 cells at 6 uM after 48 hrs using by V-FITC/PI double-staining assay (reference value: 2.73 +/- 0.69%). In kind it is functional.
For assay [14], the system named is SMMC-7721. The experiment in a line: Induction of apoptosis in human SMMC7721 cells assessed as necrotic cells at 3 uM after 48 hrs using by V-FITC/PI double-staining assay (reference value: 4.90%). Format: functional.
In assay [15] the test system is SMMC-7721. The assay is described as follows: Induction of apoptosis in human SMMC7721 cells assessed as viable cells at 3 uM after 48 hrs using by V-FITC/PI double-staining assay (reference value: 92.9%). In kind it is functional. The conditions noted are these: SMMC-7721, 48 h, read-out: Activity.
In assay [16] the test system is SMMC-7721. The experiment in a line: Cell cycle arrest in human SMMC7721 cells assessed as accumulation at G1 phase at 3 uM after 24 hrs using PI staining by flow cytometry (reference value: 60.29%). In kind it is functional.
Assay [17] deals with SMMC-7721. The experiment in a line: Induction of apoptosis in human SMMC7721 cells assessed as viable cells at 6 uM after 48 hrs using by V-FITC/PI double-staining assay (reference value: 92.9%). In kind it is functional. The note with it: SMMC-7721, 48 h, read-out: Activity.
The test system of assay [18] is SMMC-7721. The assay is described as follows: Cell cycle arrest in human SMMC7721 cells assessed as accumulation at S phase at 3 uM after 24 hrs using PI staining by flow cytometry (reference value: 24.41%). Format: functional.
The test system of assay [19] is SMMC-7721. The experiment in a line: Induction of apoptosis in human SMMC7721 cells at 3 uM after 48 hrs using by V-FITC/PI double-staining assay (reference value: 2.73 +/- 0.69%). Format: functional.
Assay [20] deals with SMMC-7721. The assay is described as follows: Cell cycle arrest in human SMMC7721 cells assessed as accumulation at G2/M phase at 3 uM after 24 hrs using PI staining by flow cytometry (reference value: 12.84%). In kind it is functional.
Assay [21] deals with SMMC-7721. The assay is described as follows: Cell cycle arrest in human SMMC7721 cells assessed as accumulation at G2/M phase at 6 uM after 24 hrs using PI staining by flow cytometry (reference value: 12.84%). Format: functional.
Assay [22] has as its system SMMC-7721. The assay is described as follows: Induction of apoptosis in human SMMC7721 cells assessed as necrotic cells at 6 uM after 48 hrs using by V-FITC/PI double-staining assay (reference value: 4.90%). In kind it is functional.
In assay [23] the test system is SMMC-7721. The assay is described as follows: Induction of apoptosis in human SMMC7721 cells assessed as necrotic cells at 9 uM after 48 hrs using by V-FITC/PI double-staining assay (reference value: 4.90%). In kind it is functional.

For the compound `O=C(C[n+]1cn(C(c2ccccc2)c2ccc3oc4ccccc4c3c2)c2ccccc21)c1ccc2ccccc2c1.[Br-]` (configuration not stated), in the assay with SMMC-7721 [1], the viability at 9 µM was 39.2%. Besides, the 50% inhibitory concentration (IC50) (commonly the point on the concentration scale where inhibition reaches its midpoint) in the assay on MCF7 was found to be 1.04 µM; with HL-60 it was 0.93 µM; in the assay on SW480 it was 3.59 µM; in the assay on A549, 3.54 µM; in the assay on SMMC-7721 [11] it was 2.86 µM. Moreover, the Activity was 5.37% in the assay with SMMC-7721 [2]; 3.46% with SMMC-7721 [3]; “Dose-dependent effect” in the assay with SMMC-7721 [4]; 40.1% with SMMC-7721 [5]; 50.8% in the assay with SMMC-7721 [6]; 17.8% with SMMC-7721 [7]. The Activity in the assay with SMMC-7721 [8] is given as 11.9%; in the assay on SMMC-7721 [9], 13.8%; with SMMC-7721 [10], 28.6%; with SMMC-7721 [12] it was 80.14%; in the assay on SMMC-7721 [13], 43.6%; with SMMC-7721 [14] it was 1.06%. For the same compound, the Activity with SMMC-7721 [16] stood at 67.74%; in the assay on SMMC-7721 [18], 26.8%; with SMMC-7721 [19], 7.6%; in the assay on SMMC-7721 [20], 4.96%; in the assay with SMMC-7721 [21], 0.75%; in the assay with SMMC-7721 [22] it was 4.21%. Further, in the assay with SMMC-7721 [23], the Activity was found to be 8.76%. The viability at 3 µM with SMMC-7721 [15] is 90.1%. The viability at 6 µM in the assay with SMMC-7721 [17] is 53.4%.
Consider `CCCC[n+]1ccn(C(C)c2ccc3oc4ccccc4c3c2)c1C` (configuration not stated), for which the IC50 in the assay with MCF7 was found to be 6.6 µM; in the assay with HL-60, 3.08 µM; in the assay on SW480 it was 10 µM; with A549, 13 µM; in the assay on SMMC-7721 [11], 7.98 µM.
The corresponding values for `O=[N+]([O-])c1ccc(C[n+]2ccn(C(c3ccccc3)c3ccc4oc5ccccc5c4c3)c2)cc1` (configuration not stated) are 10.3 µM, 10.8 µM, 19.1 µM, 28.6 µM and 15.3 µM.
The corresponding values for `Cc1n(C(C)c2ccc3oc4ccccc4c3c2)cc[n+]1CC(=O)c1ccc2ccccc2c1` (configuration not stated) are 1.65 µM, 0.6 µM, 3.09 µM, 3.86 µM and 2.15 µM.

The values above are taken from ChEMBL document CHEMBL2406972, “Synthesis and antitumor activities of novel dibenzo[b,d]furan-imidazole hybrid compounds” (Eur J Med Chem, 2013).
